According to patent US20100234325A1 (priority 2009, published 2010):
Where “and” joins values, the source holds several entries; their conditions need not be identical. Equal values may be shown once. Read-outs that look alike come from different tables or passages of the source.

Tests used:
[1] = test system: human glioblastoma xenograft U-251; format: in vivo
MX-1 human breast tumor = format: in vivo
SNB-19 = SNB-19 glioma cell line
Excerpt: (§1) Additional in vitro studies vs. U251, D54 and MDA-MB-361 cells also included 4-HC.

SNB-7 = SNB-7 glioma cell line
Excerpt: as §1

SF-268 = SF-268 glioma cell line
Excerpt: as §1

[2] = after 6 hours, ambient temperature, 31P-NMR
L1210 leukemia [3] = test: intracerebrally implanted L1210 leukemia in vivo; set-up: species or system murine; details: for leukemia cell burden after therapy: highest non-toxic dose; for increase in lifespan (ILS): highest non-toxic doses
L1210 leukemia [4] = details: IP implant; cited from earlier work
D54 = details: intrathecal administration; cited from earlier work
TE-671 = details: intrathecal administration; cited from earlier work
D54 tumor = details: intraarterial or intravenous administration; cited from earlier work
L1210 leukemia [5] = details: intracerebral L1210 model, typical value; cited from earlier work

O=NN(CCCl)C(=O)NCCCl [BCNU, carmustine, reference compound]
ILS ([1]; in vivo): 110-150% and 130% | ILS (MX-1 human breast tumor; in vivo): 13%

O=P1(N(CCCl)CCCl)NC(OOC2CCOP(=O)(N(CCCl)CCCl)N2)CCO1 (centres unmarked) [peroxyCPA, 4-peroxy-cyclophosphamide]
DNA crosslinking (pBR322 DNA): crosslinks DNA | in vitro activity compared to BCNU and temozolomide (SNB-19): superior activity | in vitro activity compared to BCNU and temozolomide (SNB-7): superior activity | in vitro activity compared to BCNU and temozolomide (SF-268): superior activity | remaining in human serum [2]: 74% | leukemia cell burden after therapy (L1210 leukemia [3]; implant of 10^4 cells): 1.0×10^0 cells | increase in lifespan (ILS) over controls (L1210 leukemia [3]; implant of 10^4 cells, highest non-toxic dose (300 mg/kg)): 85% | reduction of leukemia cell burden relative to CPA (L1210 leukemia [3]; implant of 10^5 L1210 cells): two orders of magnitude more | increase in lifespan (ILS) (L1210 leukemia [3]; implant of 10^5 L1210 cells): 100% | highest non-toxic dose (L1210 leukemia [3]; intracerebral L1210 model): 300 mg/kg | activity against intraperitoneally-implanted L1210 leukemia (L1210 leukemia [4]): curative activity | ILS ([1]; IC-implanted U-251, one (first) study): 300-350% | ILS ([1]; IC-implanted U-251, second study): 180% | ILS (MX-1 human breast tumor; IC-implanted MX-1): 69%

O=P1(N(CCCl)CCCl)NC(OO)CCO1 (centres unmarked) [4-HC, 4-hydroperoxycyclophosphamide]
activity against D54 brain tumor model (D54): active | activity against intracerebrally implanted L1210 leukemia (L1210 leukemia [3]; implant of 10^4 cells): essentially inactive | activity against TE-671 brain tumor model (TE-671): active | activity against D54 tumor (D54 tumor): active

O=P1(N(CCCl)CCCl)NCCCO1 (centres unmarked) [CPA, cyclophosphamide, reference compound]
leukemia cell burden after therapy (L1210 leukemia [3]; implant of 10^4 cells): 1.3×10^2 cells | increase in lifespan (ILS) (L1210 leukemia [3]; implant of 10^5 L1210 cells): 37% | highest non-toxic dose (typical) (L1210 leukemia [5]): 250 to 300 mg/kg
